Measured values from patent publication US20250074901A1, “NOVEL HETEROARYL COMPOUNDS” (ICAGEN, LLC, priority 2021, published 2025).
pEC50: −log10 of the molar value.

Target: T1, Kv7.2 (Homo sapiens, UniProt O43526)
T1 construct: expressed in transfected cells
Test: Activation of Kv7.2 (in vitro assay, concentration response curve)
Type: cell-based
Details: for Emax: Kv7.2 activation max %; for pEC50: activation of Kv7.2
In short: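 Agonist activity was measured in vitro across a range of compound concentrations and plotted as a sigmoidal concentration–response curve. EC50 is the concentration giving 50% of that compound's own maximal response (Emax).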

SMILES | Emax [%] | pEC50
O=C(NCc1ccnc(OC(F)F)c1F)N[C@H]1C[C@H](C(F)(F)F)C1 [Example 219, 1-[[2-(difluoromethoxy)-3-fluoropyridin-4-yl]methyl]-3-[(1r,3r)-3-(trifluoromethyl)cyclobutyl]urea] | 48 | 6.42
O=C(NCc1ccnc(OCC(F)(F)F)c1)NC1CC(F)(F)C1 [Example 157, 1-(3,3-difluorocyclobutyl)-3-[[2-(2,2,2-trifluoroethoxy)pyridin-4-yl]methyl]urea] | 50 | 6.42
O=C(NC(CO)c1ccnc(OC(F)F)c1)N[C@@H]1COc2ccccc2C1 (stereo in doubt) [Example 278, rel-1-[1-[2-(difluoromethoxy)pyridin-4-yl]-2-hydroxyethyl]-3-[(3S)-3,4-dihydro-2H-chromen-3-yl]urea] | 52 | 6.37
CC1(C)CC[C@H](O)[C@@H](NC(=O)NCc2ccnc(OC(F)F)c2)C1 (racemic) [Example 101, 1-[[2-(difluoromethoxy)pyridin-4-yl]methyl]-3-[rac-(1R,2R)-2-hydroxy-5,5-dimethylcyclohexyl]urea] | 72 | 5.92
O=C(Nc1cccc(Cl)c1)NC(CO)c1ccnc(OC(F)F)c1 (single isomer, unassigned) [Example 263] | 73 | 6.51
O=C(NCc1ccnc(OC(F)F)c1)N[C@@H]1C[C@@H]2[C@H](C1)C2(F)F [Example 169, 1-[[2-(difluoromethoxy)pyridin-4-yl]methyl]-3-[(1R,3s,5S)-6,6-difluoro-3-bicyclo[3.1.0]hexanyl]urea] | 69 | 6.47
O=C(NCc1ccnc(OCC(F)(F)F)c1)NCC1(C(F)(F)F)CC1 [Example 284, 1-[[2-(2,2,2-trifluoroethoxy)pyridin-4-yl]methyl]-3-[[1-(trifluoromethyl)cyclopropyl]methyl]urea] | 82 | 6.00
O=C(NCc1ccnc(OCC(F)CF)c1)NC12CC(F)(C1)C2 (centres unmarked) [Example 216, 1-[[2-(2,3-difluoropropoxy)pyridin-4-yl]methyl]-3-(3-fluoro-1-bicyclo[1.1.1]pentanyl)urea] | 50 | 5.83
Cc1cccc(NC(=O)NCc2ccnc(OC(F)F)c2)c1 [Example 126, 1-[[2-(difluoromethoxy)pyridin-4-yl]methyl]-3-(3-methylphenyl)urea] | 50 | 6.19
O=C(NCc1ccnc(OC(F)F)c1)NCC12CC(F)(C1)C2 [Example 32, 1-[[2-(difluoromethoxy)pyridin-4-yl]methyl]-3-[(3-fluoro-1-bicyclo[1.1.1]pentanyl)methyl]urea] | 42 | 6.08
O=C(NCc1ccnc(OC(F)F)c1)N[C@H]1CC[C@](O)(C(F)(F)F)C1 (racemic) [Example 187, 1-[[2-(difluoromethoxy)pyridin-4-yl]methyl]-3-[rac-(1R,3S)-3-hydroxy-3-(trifluoromethyl)cyclopentyl]urea] | 40 | 5.94
O=C(NCc1ccnc(OC(F)F)c1)N[C@H]1CCC(F)(F)C1 [Example 116, 1-[(1S)-3,3-difluorocyclopentyl]-3-[[2-(difluoromethoxy)pyridin-4-yl]methyl]urea] | 58 | 6.49
O=C(NCc1ccnc(OC(F)F)c1)NC1CCCC1(F)F (centres unmarked) [Example 113, 1-(2,2-difluorocyclopentyl)-3-[[2-(difluoromethoxy)pyridin-4-yl]methyl]urea] | 77 | 5.46
CC(C)(C)C(O)CNC(=O)NCc1ccnc(OC(F)F)c1 (centres unmarked) [Example 95, 1-[[2-(difluoromethoxy)pyridin-4-yl]methyl]-3-(2-hydroxy-3,3-dimethylbutyl)urea] | 43 | 5.94
O=C(NCc1ccnc(CC(F)(F)F)c1)N[C@H]1C[C@H](C(F)(F)F)C1 [Example 64, 1-[[2-(2,2,2-trifluoroethyl)pyridin-4-yl]methyl]-3-[(1r,3r)-3-(trifluoromethyl)cyclobutyl]urea] | 70 | 6.47
O=C(NCc1ccnc(OCC(F)(F)F)c1)NCC12CC(F)(C1)C2 [Example 75, 1-[(3-fluoro-1-bicyclo[1.1.1]pentanyl)methyl]-3-[[2-(2,2,2-trifluoroethoxy)pyridin-4-yl]methyl]urea] | 40 | 6.22
O=C(NCc1ccnc(CC(F)(F)F)c1)NC12CC(F)(C1)C2 [Example 159, 1-(3-fluoro-1-bicyclo[1.1.1]pentanyl)-3-[[2-(2,2,2-trifluoroethyl)pyridin-4-yl]methyl]urea] | 67 | 5.29
[2H]C([2H])(NC(=O)NCc1ccnc(OC(F)F)c1)C1CCC1 [Example 125, 1-[cyclobutyl(dideuterio)methyl]-3-[[2-(difluoromethoxy)pyridin-4-yl]methyl]urea] | 62 | 6.12
CC(C)(C)CNC(=O)NCc1ccnc(OC(F)F)c1 [Example 29, 1-[[2-(difluoromethoxy)pyridin-4-yl]methyl]-3-(2,2-dimethylpropyl)urea] | 63 | 6.24
O=C(NCc1ccnc(OC(F)F)c1)NC1(C2CC(F)(F)C2)CC1 [Example 171, 1-[1-(3,3-difluorocyclobutyl)cyclopropyl]-3-[[2-(difluoromethoxy)pyridin-4-yl]methyl]urea] | 48 | 6.44
O=C(NCc1ccnc(OCF)c1)NC12CCC(F)(CC1)CC2 [Example 208, 1-(4-fluoro-1-bicyclo[2.2.2]octanyl)-3-[[2-(fluoromethoxy)pyridin-4-yl]methyl]urea] | 58 | 6.33
O=C(NCc1ccnc(OC(F)F)c1)N[C@@H]1CC[C@@H]1F (racemic) [Example 123, 1-[[2-(difluoromethoxy)pyridin-4-yl]methyl]-3-[rac-(1R,2S)-2-fluorocyclobutyl]urea] | 40 | 5.38
CC1(C)C[C@H](NC(=O)NCc2ccnc(OC(F)F)c2)[C@@H]1O (racemic) [Example 81, 1-[[2-(difluoromethoxy)pyridin-4-yl]methyl]-3-[rac-(1R,2S)-2-hydroxy-3,3-dimethylcyclobutyl]urea] | 73 | 5.87

Stronger by pEC50, values ahead:

Emax [%] | pEC50 | SMILES
47 | 6.60 | O=C(Nc1cccc(CF)c1)NC(CO)c1ccnc(OCC(F)(F)F)c1 (centres unmarked) [Example 232, 1-[3-(fluoromethyl)phenyl]-3-[2-hydroxy-1-[2-(2,2,2-trifluoroethoxy)pyridin-4-yl]ethyl]urea]
54 | 6.80 | O=C(NCc1ccnc(OC(F)F)c1)NCC1(C(F)(F)F)CCC1 [Example 237, 1-[[2-(difluoromethoxy)pyridin-4-yl]methyl]-3-[[1-(trifluoromethyl)cyclobutyl]methyl]urea]
51 | 6.54 | O=C(NCc1ccnc(OC(F)F)c1)N[C@H]1C[C@@H]2CC(F)(F)C[C@@H]2C1 [Example 195, 1-[[2-(difluoromethoxy)pyridin-4-yl]methyl]-3-[(2r,3aR,6aS)-5,5-difluoro-2,3,3a,4,6,6a-hexahydro-1H-pentalen-2-yl]urea]
55 | 7.00 | O=C(NCc1ccnc(OCC(F)(F)F)c1)N[C@H]1CC[C@@H](C(F)(F)F)C1 (racemic) [Example 79, 1-[rac-(1R,3S)-3-(trifluoromethyl)cyclopentyl]-3-[[2-(2,2,2-trifluoroethoxy)pyridin-4-yl]methyl]urea]
42 | 6.68 | O=C(NCc1ccnc(OCC(F)(F)F)n1)Nc1cccc(Cl)c1 [Example 203, 1-(3-chlorophenyl)-3-[[2-(2,2,2-trifluoroethoxy)pyrimidin-4-yl]methyl]urea]
66 | 6.68 | CC(Oc1cc(CNC(=O)NC23CC(F)(C2)C3)ccn1)C(F)(F)F (centres unmarked) [Example 223, 1-(3-fluoro-1-bicyclo[1.1.1]pentanyl)-3-[[2-(1,1,1-trifluoropropan-2-yloxy)pyridin-4-yl]methyl]urea]
66 | 6.60 | N#CCOc1cc(CNC(=O)N[C@H]2C[C@H](C(F)(F)F)C2)ccn1 [Example 63, 1-[[2-(cyanomethoxy)pyridin-4-yl]methyl]-3-[(1r,3r)-3-(trifluoromethyl)cyclobutyl]urea]
77 | 6.85 | CCC1CC(NC(=O)NCc2ccnc(OC(F)F)c2)C1 (centres unmarked) [Example 60, 1-[[2-(difluoromethoxy)pyridin-4-yl]methyl]-3-(3-ethylcyclobutyl)urea]
62 | 6.85 | O=C(NCc1ccnc(OCC(F)(F)F)c1)Nc1cccc(F)c1F [Example 248, 1-(2,3-difluorophenyl)-3-[[2-(2,2,2-trifluoroethoxy)pyridin-4-yl]methyl]urea]
83 | 6.62 | C[C@H]1C[C@H](NC(=O)NCc2ccnc(OC(F)F)c2)C1 [Example 163, 1-[[2-(difluoromethoxy)pyridin-4-yl]methyl]-3-((1r,3r)-3-methylcyclobutyl)urea]
48 | 6.66 | O=C(NCc1ccnc(OC(F)F)c1)N[C@H]1CC[C@@H](C(F)(F)F)C1 [Example 144, 1-[[2-(difluoromethoxy)pyridin-4-yl]methyl]-3-[(1S,3R)-3-(trifluoromethyl)cyclopentyl]urea]
62 | 6.74 | O=C(NCc1ccnc(OC(F)F)c1)NC1CCC(F)(F)CC1 [Example 90, 1-(4,4-difluorocyclohexyl)-3-[[2-(difluoromethoxy)pyridin-4-yl]methyl]urea]
50 | 6.60 | O=C(NCc1ccnc(OC(F)F)c1)Nc1cc(F)ccc1F [Example 244, 1-[[2-(difluoromethoxy)pyridin-4-yl]methyl]-3-(2,5-difluorophenyl)urea]
52 | 6.54 | C[C@@H](F)COc1cc(CNC(=O)N[C@H]2C[C@H](C(F)(F)F)C2)ccn1 [Example 199, 1-[[2-[(2R)-2-fluoropropoxy]pyridin-4-yl]methyl]-3-[(1r,3r)-3-(trifluoromethyl)cyclobutyl]urea]
